Several values for one entry are separate records, joined by “and”; a condition that tells them apart may be missing. Equal entries are not always repeated. Where two headings read alike, the source gives them in different places.
Assays:
[1] = target: T1, equine serum butyrylcholinesterase (EqBuChE) (Equus caballus, UniProt P81908); test: Enzymatic kinetic study, EqBChE; type: biochemical; conditions: BChE
T1 construct: equine serum BChE [EqBChE]; from tissue; host or cells: equine serum
Procedure: (§1) The enzymatic kinetics of cholinesterase inhibition were determined according to an adapted Ellman’s method. All of the solutions were prepared at 20 °C in 0.02 M Tris-HCl buffer (pH 7.5; ionic strength ~0.02 M), stock solutions of test compounds were prepared in DMSO:EtOH (7:3) mixture (20 mM), and the experiment was conducted in triplicate. To a flat-bottom 96-well transparent plate (path length of 0.6 cm) were added 150 μL of treatment solutions with inhibitors 1a, 1h, and 1j at two different concentrations (Table S1) distributed in eight sets of triplicate each. Eight sets of untreated triplicates were used as a negative control. Following, there were added 60 μL of 5,5′-Dithiobis(2-nitrobenzoic acid) (DTNB, Ellman’s reagent) at 1.1 mM and 30 μL of electric eel acetylcholinesterase (EeAChE) or equine serum butyrylcholinesterase (EqBuChE) at 0.20 U/mL in the presence of 1 mg/mL bovine serum albumin (BSA). […] Ki, Ki’ (competitive and noncompetitive inhibition constants, respectively), Km (Michaelis-Menten constant), and Vmax values were calculated with Graphpad Prism v7.0 using the non-linear regression models for enzyme kinetics inhibition and enzyme kinetics–substrate vs. velocity.

hMAO-A = target: T2, hMAO-A (Homo sapiens, UniProt P21397); test: MAO-A inhibition, fluorometric Amplex Red assay; type: biochemical
T2 construct: purchased Sigma-Aldrich, Gillingham, UK
T2 sequence (P21397 1-527): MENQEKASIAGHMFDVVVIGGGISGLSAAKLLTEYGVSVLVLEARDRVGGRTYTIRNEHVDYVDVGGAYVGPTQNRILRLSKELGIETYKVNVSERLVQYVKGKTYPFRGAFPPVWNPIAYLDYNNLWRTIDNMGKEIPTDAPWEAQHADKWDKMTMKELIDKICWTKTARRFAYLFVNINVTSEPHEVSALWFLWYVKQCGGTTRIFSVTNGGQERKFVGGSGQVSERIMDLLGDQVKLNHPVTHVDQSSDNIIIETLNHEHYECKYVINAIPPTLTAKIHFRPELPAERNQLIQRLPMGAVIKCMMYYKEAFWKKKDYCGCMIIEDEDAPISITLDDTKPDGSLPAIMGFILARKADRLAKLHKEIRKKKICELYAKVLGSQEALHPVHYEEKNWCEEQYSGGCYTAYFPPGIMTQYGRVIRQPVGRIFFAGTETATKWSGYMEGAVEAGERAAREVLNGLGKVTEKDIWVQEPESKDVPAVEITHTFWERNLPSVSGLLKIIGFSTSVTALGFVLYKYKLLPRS
Procedure: The activity of human recombinant membrane-bound monoamine oxidase isoforms A and B (MAO-A/B) (Sigma-Aldrich, Gillingham, UK) in 50 mM potassium phosphate buffer (pH 7.5) was determined by measuring hydrogen peroxide production coupled to the fluorescent dye Amplex Red (Sigma-Aldrich, UK) at a final concentration of 50 μM, in the presence of horseradish peroxidase (HRP, 2.5 U/mL). This coupling reaction generates the fluorescent product resorufin, which was quantified at 30 °C using a fluorescence plate reader. […].
Reactions were initiated by adding the substrate and dye after a 30 min preincubation of the inhibitor with the enzyme. Data were analyzed using a three-parameter equation in GraphPad Prism 7.0 (San Diego, USA). Each reported value represents the mean of at least two independent determinations.

hH3R = target: T3, hH3R (Homo sapiens, UniProt Q9Y5N1); test: H3R radioligand displacement assay ([3H]-N-α-methylhistamine); type: binding; conditions: 95% confidence interval in brackets; HEK-293 membranes
T3 construct: expressed in transfected cells; host or cells: HEK-293
Procedure: HEK-293 cells (human embryonic kidney cells) stably expressing hH3R were washed and harvested in PBS buffer (phosphate-buffered saline). […] The cell membrane homogenate was centrifuged (20,000× g, 20 min, 4 °C), and the resulting pellet was resuspended in binding buffer and stored at −80 °C until use.
Prior to experiments, the cell membranes were thawed, homogenized by sonication at 4 °C, and kept in ice-cold binding buffer. Crude membrane extracts (20 μg/well in a final volume of 0.2 mL binding buffer) were incubated with [^3H]-N-α-methylhistamine (2 nM; 78.3 Ci/mmol) and varying concentrations of test compounds. Assays were performed in duplicate, with compound concentrations ranging from 0.01 nM to 100 μM. Incubations proceeded for 90 min at room temperature under continuous agitation.
Bound radioligand was separated from free radioligand by filtration through GF/B filters pretreated with 0.3% (w/v) polyethyleneimine, using a cell harvester. Radioactivity was quantified by liquid scintillation counting. Data were analyzed using GraphPad Prism v8 (San Diego, CA, USA) software, employing non-linear regression analysis.

[2] = target: electric eel acetylcholinesterase (EeAChE) (Electrophorus electricus, UniProt O42275); test: Enzymatic kinetic study, EeAChE; type: biochemical; conditions: AChE
Procedure: as §1

[3] = enzyme-substrate complex, global non-linear regression (Table 2)
[4] = free enzyme (Table S3), read-out: Ki ± SE (95% CI)
[5] = global non-linear regression, mixed inhibition (Table S3)

Sequence of electric eel acetylcholinesterase (EeAChE) (O42275 24-633): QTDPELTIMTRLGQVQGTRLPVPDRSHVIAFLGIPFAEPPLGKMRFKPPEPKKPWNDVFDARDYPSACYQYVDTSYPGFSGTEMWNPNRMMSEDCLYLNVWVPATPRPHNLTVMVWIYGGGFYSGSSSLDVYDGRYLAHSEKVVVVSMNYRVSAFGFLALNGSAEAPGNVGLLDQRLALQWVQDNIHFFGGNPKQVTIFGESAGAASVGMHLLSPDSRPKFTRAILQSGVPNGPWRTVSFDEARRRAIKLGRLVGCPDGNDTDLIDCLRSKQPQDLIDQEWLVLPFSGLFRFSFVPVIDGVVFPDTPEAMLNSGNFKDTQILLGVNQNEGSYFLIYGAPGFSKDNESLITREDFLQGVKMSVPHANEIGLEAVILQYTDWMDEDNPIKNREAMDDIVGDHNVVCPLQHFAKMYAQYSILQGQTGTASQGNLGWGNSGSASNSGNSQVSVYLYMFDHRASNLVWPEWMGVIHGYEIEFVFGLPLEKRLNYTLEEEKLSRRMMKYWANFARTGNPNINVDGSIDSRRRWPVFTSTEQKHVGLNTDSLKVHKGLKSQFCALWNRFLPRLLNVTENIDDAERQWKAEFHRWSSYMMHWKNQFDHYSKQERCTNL
T1 sequence (P81908 whole entry): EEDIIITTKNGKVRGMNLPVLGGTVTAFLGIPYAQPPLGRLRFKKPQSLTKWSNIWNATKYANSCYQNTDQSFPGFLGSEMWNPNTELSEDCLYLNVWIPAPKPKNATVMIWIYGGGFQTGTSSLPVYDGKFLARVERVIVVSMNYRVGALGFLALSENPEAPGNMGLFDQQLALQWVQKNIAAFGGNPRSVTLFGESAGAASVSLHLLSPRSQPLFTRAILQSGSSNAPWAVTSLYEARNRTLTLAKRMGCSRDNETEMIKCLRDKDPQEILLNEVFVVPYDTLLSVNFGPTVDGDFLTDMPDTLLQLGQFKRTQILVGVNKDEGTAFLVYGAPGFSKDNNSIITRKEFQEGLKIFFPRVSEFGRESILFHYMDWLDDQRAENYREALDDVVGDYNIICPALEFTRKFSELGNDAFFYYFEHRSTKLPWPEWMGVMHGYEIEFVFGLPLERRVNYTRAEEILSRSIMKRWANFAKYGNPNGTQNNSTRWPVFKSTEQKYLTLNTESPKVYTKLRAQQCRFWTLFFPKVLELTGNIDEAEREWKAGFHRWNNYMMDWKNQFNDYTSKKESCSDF
T3 sequence (Q9Y5N1 whole entry): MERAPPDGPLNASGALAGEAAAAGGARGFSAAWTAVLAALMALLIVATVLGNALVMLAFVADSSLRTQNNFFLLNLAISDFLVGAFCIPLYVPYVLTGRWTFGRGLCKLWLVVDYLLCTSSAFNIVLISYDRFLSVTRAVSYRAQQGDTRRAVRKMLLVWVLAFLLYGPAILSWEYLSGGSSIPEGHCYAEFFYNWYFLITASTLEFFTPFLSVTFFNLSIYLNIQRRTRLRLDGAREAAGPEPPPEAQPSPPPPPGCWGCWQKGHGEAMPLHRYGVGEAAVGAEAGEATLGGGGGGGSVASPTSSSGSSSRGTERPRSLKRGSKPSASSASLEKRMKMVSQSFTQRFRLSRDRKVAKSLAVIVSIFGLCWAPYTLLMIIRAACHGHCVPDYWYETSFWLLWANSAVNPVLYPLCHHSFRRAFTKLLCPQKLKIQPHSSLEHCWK

| Structure (SMILES) | inhibition mechanism ([1]; Lineweaver-Burk plots) | Ki ([1]; competitive inhibition constant (Table S2), read-out: Ki (nM) ± SD) [nM] | Ki’ (nM) ± SE [1, 3] [nM] | Ki [1, 4] [nM] | Ki ([1]; free enzyme, global non-linear regression (Table 2), read-out: Ki (nM) ± SE) [nM] | α ± SE (95% CI) [1, 5] | Vmax ± SD ([1]; inhibitor 2.8 μM) | Vmax ± SD ([1]; inhibitor 4.8 μM) | inhibition at 1 µM (hMAO-A; test concentration of 1 µM, read-out: Percentage of MAO-A inhibition ± SEM) [%] | Ki (hH3R) [nM] | inhibition mechanism ([2]; Lineweaver-Burk plots) | Ki’ (nM) ± SE [2, 3] [nM] | Ki [2, 4] [nM] | Ki ([2]; free enzyme, global non-linear regression to mixed-inhibition equation (Table 2), read-out: Ki (nM) ± SE) [nM] | α ± SE (95% CI) [2, 5] | Vmax ± SD ([2]; inhibitor 0.005 μM) | Vmax ± SD ([2]; inhibitor 0.007 μM) | IC50 (hMAO-A; 95% confidence interval in brackets) [µM] |
| --- | --- | --- | --- | --- | --- | --- | --- | --- | --- | --- | --- | --- | --- | --- | --- | --- | --- | --- |
| O=c1oc2cc(OCCN3CCCCC3)ccc2cc1-c1cn(Cc2ccccc2)nn1 [Compound 1h, 3-(1-Benzyl-1H-1,2,3-triazol-4-yl)-7-(2-(piperidin-1-yl)ethoxy)-2H-chromen-2-one] | mixed-type inhibition | 980 ± 24 | 4830 ± 620 | 1250 ± 151 | 1250 ± 150 | 3.852 ± 0.4265 | 3.62 ± 0.1358 1 × 10^3 nM/min and 3.62 ± 0.14 1 × 10^3 nM/min | 3.40 ± 0.0349 1 × 10^3 nM/min and 3.40 ± 0.03 1 × 10^3 nM/min | 5.2 ± 1.9 | 558 | mixed-type inhibition | 7.17 ± 1.48 | 4.73 ± 0.878 | 4.73 ± 0.88 | 1.516 ± 0.3136 | 4.45 ± 0.02231 1 × 10^3 nM/min and 4.45 ± 0.02 1 × 10^3 nM/min | 3.19 ± 0.0981 1 × 10^3 nM/min and 3.19 ± 0.010 1 × 10^3 nM/min | – |
| O=c1oc2cc(OCCCN3CCCCC3)ccc2cc1-c1cn(Cc2ccccc2)nn1 [Compound 1q, 3-(1-Benzyl-1H-1,2,3-triazol-4-yl)-7-(3-(piperidin-1-yl)propoxy)-2H-chromen-2-one] | – | – | – | – | – | – | – | – | – | 151 | – | – | – | – | – | – | – | 31.1 |
